According to PubChem BioAssay AID179 (DTP/NCI, 2004):
The source made the active and inactive calls.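 Rule for the calls: active = compounds giving half or more protection of infected cells from virus-caused growth loss, again on retest; inactive = the rest.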

System: CEM cells HIV-1 protection, formazan growth assay
Assay: NCI AIDS Antiviral Assay
Conditions: for IC50: measured here: growth of uninfected CEM cells
Procedure: The ability of compounds to protect human CEM cells from HIV-1 infection is measured as a screen for new compounds capable of inhibiting the HIV virus. Five concentrations of drug were tested on uninfected and infected cells and cell growth was measured using a soluble formazan assay. […] Compounds that provided at least 50% protection were retested. Compounds that provided at least 50% protection on retest were listed as moderately active. Compounds that reproducibly provided 100% protection were listed as confirmed active. […] Note that the inability to provide protection could be due to toxicity.

Row | SMILES | EC50 | IC50 | outcome
1 | CCN(CC)c1nc(=O)c(C(=O)C(C)(C)C)c(C(C)(C)C)o1 | > 200 µM | > 200 µM | 
2 | CNC(=O)NCCCC(NC(C)=O)C(=O)NCc1ccccc1 (stereo not given) | > 112 µM | > 112 µM | 
3 | Cc1ccc(OCC2OC(n3cnc4nc(Cl)nc(Cl)c43)CC2Oc2ccc(C)cc2)cc1 (stereo not given) | > 200 µM | 1.48 µM | 
4 | Oc1ccc2c(c1)OCC1c3cc4c(cc3OC21)OCO4 (stereo not given) |  |  | inactive
5 | COc1cc(OC)c2c(=O)c3cccc(O)c3oc2c1 | > 200 µM | > 200 µM | 
6 | O=C(O)c1ccc(C2C3C=CC(C3)C2[N+](=O)[O-])cc1 (stereo not given) | > 347 µM | > 347 µM | 
7 | CN(C)c1ccc(/C=C(\C#N)c2nc(-c3cc4ccccc4oc3=O)cs2)cc1 | 9.77 µM | > 100 µM | 
8 | CC(C)(C)P1(=O)OCC(c2ccccc2)CO1 (stereo not given) | > 200 µM | 151 µM | 
9 | CC1=NN2C(=N)/C(=C/c3ccc(F)cc3)C(=O)N=C2S1 | > 200 µM | > 200 µM | 
10 | c1ccc2c(c1)ncn1nnnc21 | > 955 µM | 501 µM | 
11 | COC(=O)c1ccc(N=NN(C)COc2ccc(C#N)cc2)cc1 | > 200 µM | 81.3 µM | 
12 | COc1cc2c(c([N+](=O)[O-])c1)NC(=O)CCS2 |  |  | inactive
13 | CCOP(N)(=O)c1ccccc1 (stereo not given) | > 200 µM | > 200 µM | 
14 | CC(C)(C)OC(=O)N(CCCCNC(=O)c1ccccc1)CCCNC(=O)c1ccccc1 | > 200 µM | 45.7 µM | 
15 | Cc1cc(Cc2cc(C)c(O)c(C(=O)O)c2)cc(C(=O)O)c1O | 380 µM | 417 µM | 
16 | CSc1nnc2n1-c1ccccc1SCC2 | > 1000 µM | 389 µM | 
17 | COc1cc2c(cc1OC)C(Cc1cc(OCc3ccccc3)c(OC)cc1N)N(C)CC2 (stereo not given) |  |  | inactive
18 | CC1=NC(C)(C)[N+]([O-])=C1 |  |  | inactive
19 | C(=Nc1cnc2ccccc2c1)c1ccc2ccccc2n1 | > 35.5 µM | 19.1 µM | 
20 | Cc1cn(C2O[C@@H]3CN(O)[C@H](C)[C@]3(O)C2O)c(=O)[nH]c1=O (stereo not given in full) | > 200 µM | > 200 µM | 

Row | SMILES | EC50 | IC50 | outcome
21 | COC(=O)N1N=C(c2ccccc2)C1c1ccccc1 (stereo not given) | > 200 µM | 38 µM | 
22 | O=C(C(=Cn1c(=S)[nH]c2ccc([N+](=O)[O-])cc21)C(=O)c1ccccc1)c1ccccc1 | > 200 µM | 81.3 µM | 
23 | CCOC(=O)C1=CCC2c3[nH]c4ccccc4c3CCN2C1=O (stereo not given) | > 16.2 µM | 9.12 µM | 
24 | O=C1CCC2(c3ccccc3)Nc3cc(Cl)ccc3N12 (stereo not given) |  |  | inactive
25 | O=C(NC1CCCCC1)NC12CC3CC(CC(F)(C3)C1)C2 | > 45.7 µM | > 45.7 µM | 
26 | COC1OC2COc3ccccc3OC2C2C1N2C(N)=O (stereo not given) |  |  | inactive
27 | O=c1oc2c(-c3ccccc3)cccc2c(O)c1-c1ccccc1 | > 200 µM | 85.1 µM | 
28 | CCOC(=O)NC(C(=O)OCC)(N1CCN(c2cc3c(cc2F)c(=O)c(C(=O)O)cn3CC)CC1)C(F)(F)F (stereo not given) | > 200 µM | 145 µM | 
29 | COc1ccccc1/C=C(/C(C)=O)C(=O)c1ccccc1 | > 25.7 µM | > 25.7 µM | 
30 | N.N.N.N.O=C([O-])O.O=C([O-])[O-].[Co+3] |  |  | inactive
31 | O=C(N/C(=C/c1cccc([N+](=O)[O-])c1)c1nc2ccc(Cl)cc2[nH]1)c1ccccc1 |  |  | inactive
32 | COC(=O)c1ccc(CS(=O)(=O)c2ccccc2)cc1 | > 12.9 µM | > 12.9 µM | 
33 | Clc1ccc(Cl)c(N=Nc2cc3c4c(c2)CCN4CCC3)c1 | > 100 µM | > 100 µM | 
34 | O=C1NC(N/N=C\C(O)C(O)C(O)CO)=N/C1=C/c1ccc(Cl)cc1 (stereo not given) | > 200 µM | 30.2 µM | inactive
35 | Cc1ccc2[c](c1)[Sn]([c]1ccccc1)([c]1ccccc1)[c]1cc(C)ccc1N2C | > 26.3 µM | 10.2 µM | 
36 | Nc1nc2c(ncn2COCCO)c(=O)[nH]1 | > 794 µM | > 794 µM | 
37 | CN(C)NP(=O)(NN(C)C)NN(C)C | > 200 µM | > 200 µM | 
38 | O=C(O)C1Cc2nc[nH]c2CN1 (stereo not given) |  |  | inactive
39 | CCO/C=C1\N=C(C(Cl)c2ccccc2)OC1=O (stereo not given) | > 135 µM | > 135 µM | 
